Patent US20040092552A1, “2-Fluorobenzenesulfonyl compounds for the treatment of inflammation” (priority 2003, published 2004)
Counter-ions that a name gives are not always drawn.

| SMILES | melting point |
| --- | --- |
| Cc1ccc(-c2cc(C(F)(F)F)nn2-c2ccc(S(N)(=O)=O)c(F)c2)cc1 (as salt: trifluoroacetate) [Example 4, 4-[5-(4-Methylphenyl)-3-(trifluoromethyl)-1H-pyrazol-1-yl]-2-fluorobenzenesulfonamide] | 126 to 128 °C |
| NS(=O)(=O)c1ccc(-n2nc(C(F)(F)F)cc2-c2ccc(Cl)cc2)cc1F (as salt: trifluoroacetate) [Example 5, 4-[5-(4-Chlorophenyl)-3-trifluoromethyl-1H-pyrazol-1-yl]-2-fluorobenizenesulfonamide] | 140 to 141 °C |
| COc1ccc(-c2cc(C(F)(F)F)nn2-c2ccc(S(N)(=O)=O)c(F)c2)cc1F (as salt: trifluoroacetate) [Example 6, 4-[5-(3-Fluoro-4-methoxy)-3-trifluoromethyl-1H-pyrazol-1-yl]-2 fluorobenzenesulfonamide] | 124 to 126 °C |
| NS(=O)(=O)c1ccc(-n2nc(C(F)(F)F)cc2-c2ccc(F)cc2)cc1F (as salt: trifluoroacetate) [Example 8, 2-Fluoro-4-[5-(4-fluorophenyl)-3-(trifluoromethyl)-1H-pyrazol-1-yl]benzenesulfonamide] | 127 to 130 °C |
| COc1ccccc1-c1cc(C(F)(F)F)nn1-c1ccc(S(N)(=O)=O)c(F)c1 (as salt: trifluoroacetate) [Example 9, 2-Fluoro-4-[5-(2-methoxyphenyl)-3-(trifluoromethyl)-1H-pyrazol-1-yl]benzenesulfonamide] | 159 to 160 °C |
| CS(=O)(=O)c1ccc(-c2cc(C(F)F)nn2-c2ccc(F)cc2)cc1F (as salt: trifluoroacetate) [Example 18, 3-(Difluoromethyl)-5-[3-fluoro-4-(methylsulfonyl)phenyl]-1-(4-fluorophenyl)-1H-pyrazole] | 201 to 202 °C |
| CS(=O)(=O)c1ccc(-c2cc(C(F)F)nn2C2CCCCC2)cc1F (as salt: trifluoroacetate) [Example 19, 1-Cyclohexyl-3-(difluoromethyl)-5-[3-fluoro-4-(methylsulfonyl)phenyl]-1H-pyrazole] | 138 to 139 °C |
| Cc1ccc(-n2nc(C(F)F)cc2-c2ccc(S(C)(=O)=O)c(F)c2)cc1Cl (as salt: trifluoroacetate) [Example 20, 1-(3-Chloro-4-methylphenyl)-3-(difluoromethyl)-5-[3-fluoro-4-(methylsulfonyl)phenyl]-1H-pyrazole] | 146 to 147 °C |
| CS(=O)(=O)c1ccc(-c2cc(C(F)F)nn2-c2cccc(C(F)(F)F)c2)cc1F (as salt: trifluoroacetate) [Example 21, 3-(Difluoromethyl)-5-[3-fluoro-4-(methylsulfonyl)-phenyl]-1-[3-(trifluoromethyl)-phenyl]-1H-pyrazole] | 110 to 111 °C |
| NS(=O)(=O)c1ccc(-c2cscc2-c2ccccc2)cc1F [Example 1, 2-Fluoro-4-(4-phenyl-3-thienyl)benzenesulfonamide] | 170.9 to 171 °C |
| CS(=O)(=O)c1ccc(-c2cscc2-c2ccccc2)cc1F [Example 2, 3-[3-Fluoro-4-(methylsulfonyl)phenyl]-4-phenylthiophene] | 140 to 141 °C |
| Cc1ccc(-c2cc(C(F)F)nn2-c2ccc(S(N)(=O)=O)c(F)c2)cc1Cl [Example 3, 4-[5-(3-chloro-4-methylphenyl)-3-(difluoromethyl)-1H-pyrazol-1-yl]-2-fluorobenzenesulfonamide] | 160 to 161 °C |
| COc1ccc(-c2cc(C(F)F)nn2-c2ccc(S(N)(=O)=O)c(F)c2)cc1F [Example 10, 4-[3-(Difluoromethyl)-5-(3-fluoro-4-methoxyphenyl)-1H-pyrazol-1-yl]-2-fluorobenzenesulfonamide] | 167 to 169 °C |
| CS(=O)(=O)c1ccc(-c2cc(C(F)(F)F)nn2-c2ccc(F)cc2)cc1F [Example 11, 5-[3-Fluoro-4-(methylsulfonyl)phenyl]-1-(4-fluorophenyl)-3-(trifluoromethyl)-1H-pyrazole] | 228 to 229 °C |
| CS(=O)(=O)c1ccc(-c2cc(C(F)(F)F)nn2C2CCCCC2)cc1F [Example 12, 1-Cyclohexyl-5-[3-fluoro-4-(methylsulfonyl)phenyl]-3-(trifluoromethyl)-1H-pyrazole] | 228 to 229 °C |
| CS(=O)(=O)c1ccc(-c2cc(C(F)(F)F)nn2-c2ccc(OC(F)(F)F)cc2)cc1F [Example 14, 5-[3-Fluoro-4-(methylsulfonyl)phenyl]-3-(trifluoromethyl)-1-[4-(trifluoromethoxy)phenyl]-1H-pyrazole] | 110 to 112 °C |
| Cc1ccc(-n2nc(C(F)(F)F)cc2-c2ccc(S(C)(=O)=O)c(F)c2)cc1Cl [Example 15, 1-(3-Chloro-4-methylphenyl)-5-[3-fluoro-4-(methylsulfonyl)phenyl]-3-(trifluoromethyl)-1H-pyrazole] | 144 to 145 °C |
| CS(=O)(=O)c1ccc(-c2cc(C(F)(F)F)nn2-c2ccc(C#N)cc2)cc1F [Example 16, 4-[5-[3-Fluoro-4-(methylsulfonyl)phenyl]-3-(trifluoromethyl)-1H-pyrazol-1-yl]benzonitrile] | 152 to 153 °C |
| Cc1cccc(-n2nc(C(F)(F)F)cc2-c2ccc(S(C)(=O)=O)c(F)c2)c1 [Example 17, 5-[3-Fluoro-4-(methylsulfonyl)phenyl]-1-(3-methylphenyl)-3-(trifluoromethyl)-1H-pyrazole] | 129 to 130 °C |
| Cc1onc(-c2ccc(F)cc2)c1-c1ccc(S(N)(=O)=O)c(F)c1 [Example 22, 2-Fluoro-4-[3-(4-fluorophenyl)-5-methyl-4-isoxazolyl]benzenesulfonamide] | 176 to 177 °C |
| CS(=O)(=O)c1ccc(C2=C(c3ccccc3)C(=O)OC2)cc1F [Example 24, 4-[3-Fluoro-4-(methylsulfonyl)phenyl]-3-phenyl-2(5H)-furanone] | 161 to 162 °C |
